biological target: Glutamate receptor ionotropic, NMDA 1 (Rattus norvegicus, UniProt P35439); experiment: Ability of compound to compete with [3H]glycine for the strychnine-insensitive NMDA receptor glycine binding sites on rat cortical and hippocampus; format: tissue-based

IC50	Structure (SMILES)
110 nM	CN(C(=O)c1ccccc1)c1c(C(=O)O)[nH]c2cc(Cl)ccc12
270 nM	CN(C(=O)c1ccccc1)c1c(C(=O)O)[nH]c2cc(Cl)cc(Cl)c12
3000 nM	O=C(Nc1c(C(=O)O)[nH]c2cc(Cl)ccc12)c1ccccc1
17000 nM	O=C(Nc1c(C(=O)O)[nH]c2cc(Cl)cc(Cl)c12)c1ccccc1
170 nM	O=C(O)C(=O)Nc1c(C(=O)O)[nH]c2cc(Cl)cc(Cl)c12
100 nM	O=C(O)CSc1c(C(=O)O)[nH]c2cc(Cl)cc(Cl)c12
400 nM	O=C(O)CN(C(=O)c1ccccc1)c1c(C(=O)O)[nH]c2cc(Cl)cc(Cl)c12
9500 nM	CN(C(=O)C(=O)O)c1c(C(=O)O)[nH]c2cc(Cl)cc(Cl)c12
140 nM	O=C(O)c1cc(O)c2c(Cl)cc(Cl)cc2n1

From ChEMBL document CHEMBL1150503, “Design, synthesis and molecular modeling of 3-acylamino-2- Carboxyindole NMDA receptor glycine-site antagonists” (Bioorg Med Chem Lett, 1991)
